The values below come from paper PMC11696576, “Next generation thiazolyl ketone inhibitors of cytosolic phospholipase A2 α for targeted cancer therapy” (Nature Communications, 2025).

“And” between values parts separate entries of the source, which are not always exact repeats. Identical values can stand only once. Like-named read-outs stand apart in the source and are kept apart here. Marks after values point to notes of the source that are not given here.

The target of one data set is T1, recombinant human cPLA2α (Homo sapiens, UniProt P47712).
T1 sequence (P47712 1-749): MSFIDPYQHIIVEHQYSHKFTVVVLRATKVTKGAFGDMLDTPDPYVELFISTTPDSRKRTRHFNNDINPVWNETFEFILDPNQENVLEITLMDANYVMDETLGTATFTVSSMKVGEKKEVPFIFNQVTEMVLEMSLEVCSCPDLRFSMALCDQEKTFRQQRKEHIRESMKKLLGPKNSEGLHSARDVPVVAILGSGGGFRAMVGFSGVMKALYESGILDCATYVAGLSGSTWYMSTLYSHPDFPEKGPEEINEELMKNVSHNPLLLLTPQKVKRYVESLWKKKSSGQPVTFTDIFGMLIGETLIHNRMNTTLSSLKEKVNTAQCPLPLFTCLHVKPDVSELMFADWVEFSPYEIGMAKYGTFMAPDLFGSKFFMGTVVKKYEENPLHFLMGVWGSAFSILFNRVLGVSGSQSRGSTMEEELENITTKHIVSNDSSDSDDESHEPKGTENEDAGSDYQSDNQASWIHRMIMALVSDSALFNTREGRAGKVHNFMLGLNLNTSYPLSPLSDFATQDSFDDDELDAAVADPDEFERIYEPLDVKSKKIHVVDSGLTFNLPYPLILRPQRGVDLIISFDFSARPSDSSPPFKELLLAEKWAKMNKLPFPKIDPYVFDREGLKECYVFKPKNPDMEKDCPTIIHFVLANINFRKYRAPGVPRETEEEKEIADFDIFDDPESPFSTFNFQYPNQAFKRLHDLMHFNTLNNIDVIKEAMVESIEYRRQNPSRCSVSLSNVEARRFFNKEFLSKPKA
Put plainly: radioactivity-based mixed micelle assay, cPLA2α. In kind it is biochemical. To be noted: for cPLA2 % inhibition at 0.091 mole fraction, average: average of triplicates; for cPLA2α XI(50): XI(50) ± stdev, mole fraction of inhibitor in total substrate interface for 50% inhibition; for times more potent than GK470: cPLA2α XI(50) relative to GK470; for cPLA2α inhibition, Xi50 dose-response: replicates. Here is the method:
All synthesized thiazolyl ketones were tested for their in vitro inhibitory activity on recombinant human cPLA2α and selectivity over human calcium-independent GVIA iPLA2 and secreted GV sPLA2 using our previously described group-specific radioactivity-based mixed micelle assays. The inhibition results are presented either as per cent inhibition or as XI(50) values in Table 1. […] The XI(50) is defined as the mole fraction of the inhibitor in the total substrate interface required to inhibit the enzyme activity by 50%. For comparison purposes, previously published data for the inhibitor GK470[19] are included. […] Inhibitors were initially screened at 0.091 mol fraction (5 μL of 5 mM inhibitor in DMSO) in substrate (495 μL) in technical triplicates. […] The XI(50) value and stdev values reported are for the entire curve. This analysis was performed in GraphPad Prism v6.

The nature of data set [1]: stability in human plasma (LC-MS/MS). Format: in vitro ADME. To be noted: for Stability in human plasma 4 h: % of the compound remaining after 4 h; for plasma stability 4h (%) / plasma stability 25h (%) / plasma stability 20h (%) / plasma stability 24h39min (%): individual sample, human plasma. Here is the method:
The stability of the analogs in human plasma was studied over approximately 24 h by LC-MS/MS and the results at 4 h and the final timepoint (20–25 h) are included in Table 1.
The metabolic stability of the compounds was determined through in vitro stability assays in human plasma. Solutions of compounds in DMSO (20 mM) were diluted to 5 μg/mL in 50% methanol for infusion into the MS/MS system and spiking of calibration standards and control samples. For the MS detection, positive ionization in ESI mode was used. Good sensitivity, retention and peak shaped were achieved using a gradient with 5 mM ammonium carbamate in water and ammonium carbamate in 90% acetonitrile on a reversed phase column (ACE3AQ). Calibration standards were spiked in a calibration range of 0.5–100 ng/ml. Control samples were spiked at, low, medium, and high concentration levels. The spiked plasma samples were prepared by protein precipitation using acetonitrile containing appropriate internal standard (IS). […] Samples were prepared for analysis by taking 50 μL of plasma sample and adding 100 μL of IS working solution in acetonitrile followed by vortexing at 2500 rpm (Multi-tube vortexer DVX-2500, Henry Troemner LLC, USA) for 2 min. The samples were centrifuged at 5300 rpm (Heraeus Megafuge 1.0 Heraeus, Germany) for 3 min and the supernatant transferred to the autosampler. Recovery was determined by comparing the prepared matrix samples (protein precipitation) with a direct sample (analytes spikes in 67% acetonitrile = injection solution) such that the recovery of the sample preparation and the matrix effects were determined together. Two or three samples were each measured in technical triplicates to give the final % recovery.

[2] abbreviates: 0.091 mole fraction, read-out: cPLA2α % Inhib.
[3] abbreviates: individual technical replicate, read-out: cPLA2 % inhibition at 0.091 mole fraction.
Where [4] appears, read: % of the compound remaining after 25 h (¤).
Setting [5] is: % of the compound remaining after 20 h.
Where [6] appears, read: % of the compound remaining after 24 h 39 min (*).

As for `CCCCCCCCc1ccc(OCC(=O)c2nc(C(=O)OCC)cs2)cc1` [GK401], the inhibition at 0.091 mole fraction on recombinant human cPLA2α (setting [2]) is 89%. Moreover, the “cPLA2 % inhibition at 0.091 mole fraction, average” value on recombinant human cPLA2α is on record as 88.7%. Further, the inhibition at 0.091 mole fraction on recombinant human cPLA2α (setting [3]) worked out at 88.4%. Further, in data set [1], the “Stability in human plasma 4 h” value was determined as 69.3%; the “plasma stability 4h (%)” value was 65.9% and 74% and 67.2%; the “plasma stability 25h (%)” value was 16.8% and 15.7%. Also, the “Stability in human plasma 20+ h” value in data set [1] (setting [4]) is 16.25¤ %.

Consider `CCCCCCCCc1ccc(OC(C)C(=O)c2nc(C(=O)OC)cs2)cc1` (stereo not drawn) [GK402], for which the inhibition at 0.091 mole fraction on recombinant human cPLA2α (setting [2]) was 79%. The “cPLA2 % inhibition at 0.091 mole fraction, average” value on recombinant human cPLA2α came to 79.2%. For the same molecule, the inhibition at 0.091 mole fraction on recombinant human cPLA2α (setting [3]) worked out at 81%. Further, in data set [1], the “Stability in human plasma 4 h” value worked out at 79.7%; the “plasma stability 4h (%)” value is 79.3% and 79.5% and 80.3%; the “plasma stability 25h (%)” value is 47% and 46% and 48.8%. For the same molecule, the “Stability in human plasma 20+ h” value in data set [1] (setting [4]) was 47.3¤ %.

Turning to `COC(=O)c1csc(C(=O)COc2ccc(Oc3ccccc3)cc2)n1` [GK403], at recombinant human cPLA2α (setting [2]), the inhibition at 0.091 mole fraction came to 95%. At recombinant human cPLA2α, the “cPLA2α XI(50)” value is 0.0014 mole fraction and 0.0014 ± 0.0001 mole fraction; the “cPLA2 % inhibition at 0.091 mole fraction, average” value is reported as 95.4%. For the same molecule, the inhibition at 0.091 mole fraction at recombinant human cPLA2α (setting [3]) was determined as 95.1%. Besides, in data set [1], the “Stability in human plasma 4 h” value is given as 21.5%; the “plasma stability 4h (%)” value is 32.3% and 10.6%.

`CCCCCCOc1ccc(SCC(=O)c2nc(C(=O)OC)cs2)cc1` [GK419]: on recombinant human cPLA2α (setting [2]), the inhibition at 0.091 mole fraction amounted to 50%. Besides, the inhibition at 0.091 mole fraction at recombinant human cPLA2α (setting [3]) amounted to 54%. In data set [1], the “Stability in human plasma 4 h” value amounted to 82%; the “plasma stability 4h (%)” value was 82.6% and 81.4%; the “plasma stability 20h (%)” value was 53.1% and 52.3%. For the same molecule, the “Stability in human plasma 20+ h” value in data set [1] (setting [5]) worked out at 52.7%.

For the molecule `CCCCCCCOc1ccc(OCC(=O)c2nc(C(=O)OC)cs2)cc1` [GK420], at recombinant human cPLA2α (setting [2]), the inhibition at 0.091 mole fraction was found to be 98%. On recombinant human cPLA2α, the “cPLA2α XI(50)” value is 0.0016 mole fraction and 0.0016 ± 0.0002 mole fraction; the “times more potent than GK470” value is listed as 7–11. The inhibition at 0.091 mole fraction at recombinant human cPLA2α (setting [3]) amounted to 97.2%. Besides, in data set [1], the “Stability in human plasma 4 h” value turned out to be 63.3%; the “plasma stability 4h (%)” value was 64.7% and 61.9%; the “plasma stability 20h (%)” value was 19.1% and 17%. Further, the “Stability in human plasma 20+ h” value in data set [1] (setting [5]) stood at 18.05%.

With `CCCCCCSc1ccc(OCC(=O)c2nc(C(=O)OC)cs2)cc1` [GK427], the inhibition at 0.091 mole fraction on recombinant human cPLA2α (setting [2]) worked out at 98%. Further, the “cPLA2α inhibition, Xi50 dose-response” value on recombinant human cPLA2α (Log [inhibitor] (mole%) -4.30) was determined as 14.10. For the same molecule, on recombinant human cPLA2α, the “cPLA2α XI(50)” value is 0.0010 mole fraction and 0.0010 ± 0.0001 mole fraction; the “times more potent than GK470” value is reported as 7–11. On recombinant human cPLA2α (setting [3]), the inhibition at 0.091 mole fraction was 98.4%. In addition, in data set [1], the “Stability in human plasma 4 h” value turned out to be 61.3%; the “plasma stability 4h (%)” value was 59% and 63.5%; the “plasma stability 20h (%)” value is 0% and 16.1%. The “Stability in human plasma 20+ h” value in data set [1] (setting [5]) is 8.05%.

For the molecule `COC(=O)c1csc(C(=O)C(C)Oc2ccc(Oc3ccccc3)cc2)n1` (stereo not drawn) [GK428], the inhibition at 0.091 mole fraction at recombinant human cPLA2α (setting [2]) came to 94%. Further, on recombinant human cPLA2α, the “cPLA2α XI(50)” value is 0.0038 mole fraction and 0.0038 ± 0.0001 mole fraction. Also, at recombinant human cPLA2α (setting [3]), the inhibition at 0.091 mole fraction amounted to 94.2%. Moreover, in data set [1], the “Stability in human plasma 4 h” value is on record as 35.9%; the “plasma stability 4h (%)” value is 36.5% and 35.3%; the “plasma stability 20h (%)” value was 2.1% and 1.2%. Moreover, the “Stability in human plasma 20+ h” value in data set [1] (setting [5]) is 1.65%.

In the case of `CCCCCCCOc1ccc(OC(C)C(=O)c2nc(C(=O)OC)cs2)cc1` (stereo not drawn) [GK439], the inhibition at 0.091 mole fraction on recombinant human cPLA2α (setting [2]) turned out to be 97%. Besides, the “cPLA2α inhibition, Xi50 dose-response” value on recombinant human cPLA2α (Log [inhibitor] (mole%) -3.00) was determined as 33.0. On recombinant human cPLA2α, the “cPLA2α XI(50)” value is 0.0029 mole fraction and 0.0029 ± 0.0004 mole fraction; the “cPLA2 % inhibition at 0.091 mole fraction, average” value came to 96.6%. In addition, the inhibition at 0.091 mole fraction on recombinant human cPLA2α (setting [3]) turned out to be 96%. Moreover, in data set [1], the “Stability in human plasma 4 h” value is recorded as 59.9%; the “plasma stability 24h39min (%)” value was 10.7% and 14.8%; the “plasma stability 4h (%)” value was 55.1% and 64.7%. The “Stability in human plasma 20+ h” value in data set [1] (setting [6]) is reported as 12.8* %.

Take `COC(=O)c1csc(C(=O)COc2ccc(Oc3ccc(F)cc3)cc2)n1` [GK440]: the inhibition at 0.091 mole fraction at recombinant human cPLA2α (setting [2]) was found to be 100%. Moreover, the “cPLA2α inhibition, Xi50 dose-response” value at recombinant human cPLA2α (Log [inhibitor] (mole%) -1.00) came out at 102.2. Also, the “cPLA2α inhibition, Xi50 dose-response” value at recombinant human cPLA2α (Log [inhibitor] (mole%) -1.22) was 99.7. Moreover, on recombinant human cPLA2α, the “cPLA2α XI(50)” value was 0.0010 mole fraction and 0.0010 ± 0.0001 mole fraction; the “cPLA2 % inhibition at 0.091 mole fraction, average” value is 100.3%. Moreover, at recombinant human cPLA2α (setting [3]), the inhibition at 0.091 mole fraction stood at 99.5%. In addition, in data set [1], the “Stability in human plasma 4 h” value is on record as 21.3%; the “plasma stability 24h39min (%)” value is 0.5% and 1.3%; the “plasma stability 4h (%)” value was 20.1% and 22.4%. Also, the “Stability in human plasma 20+ h” value in data set [1] (setting [6]) is on record as 0.9* %.

As to `CCCCCCSc1ccc(OC(C)C(=O)c2nc(C(=O)OC)cs2)cc1` (stereo not drawn) [GK449], on recombinant human cPLA2α (setting [2]), the inhibition at 0.091 mole fraction was 98%. Besides, at recombinant human cPLA2α, the “cPLA2α XI(50)” value was 0.0017 mole fraction and 0.0017 ± 0.0005 mole fraction; the “cPLA2 % inhibition at 0.091 mole fraction, average” value is listed as 97.5%; the “times more potent than GK470” value is given as 7–11. Also, at recombinant human cPLA2α (setting [3]), the inhibition at 0.091 mole fraction turned out to be 96.2%. Moreover, in data set [1], the “Stability in human plasma 4 h” value is recorded as 63%; the “plasma stability 24h39min (%)” value is 16.1% and 20.6%; the “plasma stability 4h (%)” value was 58.4% and 67.6%. In addition, in data set [1] (setting [6]), the “Stability in human plasma 20+ h” value is 18.35* %.

Consider `CCCCCCCCc1ccc(OCC(=O)c2nc(C(=O)OC)cs2)cc1` [GK470], for which, in data set [1], the “Stability in human plasma 4 h” value was determined as 60.6%; the “plasma stability 4h (%)” value is 58.2% and 63% and 60.5%; the “plasma stability 25h (%)” value is 10.5% and 10.6%.
